From patent US6855729B2, “Treatment of fibromyalgia and related fatigue syndromes using antagonists or partial agonists of 5HT1a receptors” (priority 2001, dated 2005)

What was measured:
[1] = molecular target: T1, 5HT1a receptor (Homo sapiens, UniProt P08908); assay: Buspirone challenge, prolactin release; format: in vivo; details: buspirone 30 mg orally; for Prolactin AUC (mean±SD): blood 0-180 min
T1 construct: Buspirone (30 mg) or matching placebo was administered orally at 0900 h (Time 0); from tissue; host or cells: living human subjects (central receptors)
T1 sequence (P08908 1-422): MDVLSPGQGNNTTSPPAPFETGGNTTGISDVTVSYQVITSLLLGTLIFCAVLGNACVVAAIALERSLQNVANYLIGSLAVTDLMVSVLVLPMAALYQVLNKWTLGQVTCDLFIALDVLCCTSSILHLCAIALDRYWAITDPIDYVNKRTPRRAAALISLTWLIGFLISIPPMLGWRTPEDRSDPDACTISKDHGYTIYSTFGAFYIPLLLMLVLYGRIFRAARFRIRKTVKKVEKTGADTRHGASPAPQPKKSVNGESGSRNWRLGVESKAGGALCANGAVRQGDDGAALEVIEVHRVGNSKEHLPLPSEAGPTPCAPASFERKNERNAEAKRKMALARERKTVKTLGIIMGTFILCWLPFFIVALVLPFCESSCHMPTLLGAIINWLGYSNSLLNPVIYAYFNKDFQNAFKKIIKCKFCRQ
Procedure: A total of 12 subjects (9 female/3 male) and 12 healthy comparison subjects (9 female/3 male) gave fully informed consent to take part in the study. […] All patients fulfilled criteria for both fibromyalgia (ACR criteria) and chronic fatigue syndrome (CDC criteria). […] Buspirone (30 mg) or matching placebo was administered orally at 0900 h (Time 0). Blood was taken at 0, 30, 60, 90, 120 and 180 min.

[2] = tested on: patients with fibromyalgia; assay: Open label treatment study in fibromyalgia / chronic fatigue syndrome; format: in vivo, human; details: 2.5 mg three times daily
Procedure: Five patients with fibromyalgia (ACR criteria) who also met criteria for chronic fatigue syndrome (CDC criteria) gave informed consent to take part in this open label treatment study. All were treated with pindolol 2.5 mg three times daily.

| Structure (SMILES) | Prolactin levels after challenge ([1]; all subjects (patients and healthy)) | Prolactin AUC (mean±SD) ([1]; healthy subjects) | Prolactin AUC (mean±SD) ([1]; patients with fibromyalgia and chronic fatigue syndrome) | Time to significant improvement in symptoms ([2]; from commencing treatment) | Effect on symptoms, energy levels and general wellbeing ([2]; open label) | Patients showing a significant improvement in symptoms ([2]; open label, five patients with fibromyalgia and chronic fatigue syndrome) |
| --- | --- | --- | --- | --- | --- | --- |
| O=C1CC2(CCCC2)CC(=O)N1CCCCN1CCN(c2ncccn2)CC1 [Buspirone] | rose in all subjects | 27±35 | 49±28 | – | – | – |
| CC(C)NCC(O)COc1cccc2[nH]ccc12 (racemic) [pindolol] | – | – | – | ≤ 10 days | reduction in all symptoms and an increase in energy levels and general wellbeing | Four of 5 |
